Test results reported in patent US20250017856A1, “CO-FORMULATION AND CO-DELIVERY OF IONIZABLE COLLOID FORMING DRUGS WITH NUCLEIC ACIDS” (THE GOVERNING COUNCIL OF THE UNIVERSITY OF TORONTO, priority 2023, published 2025).

Columns and labels:
[1] = RNA encapsulation efficiency (modified Quant-iT RiboGreen assay) and loading; type: physicochemical; details: for siRNA encapsulation (in words): drugs that were not colloid formers; for Encapsulation efficiency (%) / Small molecule drug mass % / siRNA mass %: FxNP
Description: (§1) [NT] antisense (SEQ ID NO: 2): [NT] where “d” denotes a DNA base), siFLuc-2 (sense (SEQ ID NO: 3): [NT] antisense (SEQ ID NO: 4): [NT] where “d” denotes a DNA base and “m” indicates a 2'-O-methyl RNA base), sinLuc (sense (SEQ ID NO: 5): [NT] antisense SEQ ID NO: 6): [NT] where “d” denotes a DNA base), […]1 (sense (SEQ ID NO: 7): [NT] antisense (SEQ ID NO: 8): [NT] where “d” denotes a DNA base and “m” indicates a 2'-O-methyl RNA base), siNT (sense (SEQ ID NO: 9): [NT] antisense (SEQ ID NO: 10): [NT] where “d” denotes a DNA base and “m” indicates a 2'-O-methyl RNA base), mFLuc (EZ Cap Firefly Luciferase mRNA (5-moUTP), ApexBio), rRNA or RNA from Torula utilis yeast (T.U. RNA) was diluted in citrate buffer (50 or 25 mM, pH 4), malate buffer (25 mM, pH 4.0) or acetate buffer (25 mM, pH 4.0). A lipid/drug mix concentration of 5.5 mM was used with a total flow rate of 9 mL/min at a 3:1 ratio of aqueous to organic phase. […] After formulation, buffer exchange into PBS or Tris-buffered saline (TBS; pH 8.5) was performed using Amicon Ultra-4 centrifugal filters (molecular weight cut-off 10 kDa). Hydrodynamic diameter, polydispersity index (PDI), and scattering intensity were measured by dynamic light scattering (DLS) using a DynaPro Plate Reader II (Wyatt Technologies). The instrument was configured with a 60 mW 830 nm laser and a detector angle of 158°. A 25 μL sample of each formulation was pipetted into each well of a 384-well plate and measured with 20 acquisitions per sample at 25° C. […] Quant-iT RiboGreen reagent was added, and fluorescence intensity was quantified using a Tecan Infinite […] plate reader.

[2] = Hydrodynamic diameter and polydispersity index by dynamic light scattering; type: physicochemical; details: FxNP
Description: as §1

[3] = Zeta potential (Malvern Zetasizer); type: physicochemical; details: FxNP
Experimental: Zeta potential was measured by diluting FXNPs in phosphate to an ion concentration of 1 mM and using a Malvern Zetasizer Nano ZS instrument.

[4] = ionizable compound (fulvestrant analog); cited from earlier work

Row | Hydrodynamic diameter (nm) ([2]; siFLuc, DOPC) | PDI ([2]; siFLuc, DOPC) | Hydrodynamic diameter (nm) ([2]; siFLuc, DSPC) | PDI ([2]; siFLuc, DSPC) | Hydrodynamic diameter (nm) ([2]; sinLuc, DOPC) | PDI ([2]; sinLuc, DOPC) | Encapsulation efficiency (%) ([1]; siFLuc, DOPC) | Small molecule drug mass % ([1]; siFLuc, DOPC) | siRNA mass % ([1]; siFLuc, DOPC) | Encapsulation efficiency (%) ([1]; siFLuc, DSPC) | Small molecule drug mass % ([1]; siFLuc, DSPC) | siRNA mass % ([1]; siFLuc, DSPC) | Encapsulation efficiency (%) ([1]; sinLuc, DOPC) | Small molecule drug mass % ([1]; sinLuc, DOPC) | siRNA mass % ([1]; sinLuc, DOPC) | Zeta potential (mV) ([3]; siFLuc, DOPC) | Zeta potential (mV) ([3]; siFLuc, DSPC) | Zeta potential (mV) ([3]; sinLuc, DOPC) | SMILES | pKa [4] | further results
1 | – | – | – | – | – | – | – | – | – | – | – | – | – | – | – | – | – | – | CN[C@H]1CC[C@@H](c2ccc(Cl)c(Cl)c2)c2ccccc21 [sertraline, reference compound] | – | siRNA encapsulation (in words) [1]: did not encapsulate siRNA in nanoparticles or encapsulated siRNA at low efficiency
2 | 199.0 nm | 0.066 | 154.9 nm | 0.036 | 224.8 nm | 0.093 | 80.3% | 56.5% | 4.0% | 88.3% | 56.3% | 4.4% | 76.4% | 56.6% | 3.8% | −8.00 mV | −11.83 mV | −14.27 mV | CC12CCC3c4ccc(O)cc4CC(CCCCCCCCCS(=O)(CCCC(F)(F)C(F)(F)F)=NC(=O)CCN4CCOCC4)C3C1CCC2O (stereo not shown) [7d] | 5.7 | –
3 | 245.9 nm | 0.035 | 149.3 nm | 0.022 | 243.5 nm | 0.014 | 58.7% | 56.7% | 3.0% | 69.9% | 56.3% | 3.6% | 79.5% | 56.1% | 4.0% | −11.27 mV | −12.97 mV | −11.80 mV | CC12CCC3c4ccc(O)cc4CC(CCCCCCCCCS(=O)(CCCC(F)(F)C(F)(F)F)=NC(=O)CN4CCOCC4)C3C1CCC2O (stereo not shown) [7a] | 5.1 | –
4 | – | – | 337.1 nm | 0.225 | – | – | – | – | – | 72.0% | 56.2% | 3.7% | – | – | – | – | −3.56 mV | – | CC12CCC3c4ccc(O)cc4CC(CCCCCCCCCS(=O)(CCCC(F)(F)C(F)(F)F)=NC(=O)CCN4CCCC4)C3C1CCC2O (stereo not shown) [7j] | 7.6 | –
5 | – | – | – | – | – | – | – | – | – | – | – | – | – | – | – | – | – | – | CN(C)CCCN1c2ccccc2Sc2ccc(Cl)cc21 [chlorpromazine, reference compound] | – | siRNA encapsulation (in words) [1]: did not encapsulate siRNA in nanoparticles or encapsulated siRNA at low efficiency
6 | – | – | 426.9 nm | 0.060 | – | – | – | – | – | 80.2% | 55.1% | 4.2% | – | – | – | – | −8.53 mV | – | CN(C)CCC(=O)N=S(=O)(CCCCCCCCCC1Cc2cc(O)ccc2C2CCC3(C)C(O)CCC3C12)CCCC(F)(F)C(F)(F)F (stereo not shown) [7k] | 7.8 | –
7 | 186.2 nm | 0.022 | 170.8 nm | 0.076 | 181.8 nm | 0.042 | 96.6% | 56.0% | 4.8% | 94.7% | 56.0% | 4.7% | 94.9% | 56.0% | 4.7% | 3.39 mV | −4.92 mV | 0.01 mV | CC12CCC3c4ccc(O)cc4CC(CCCCCCCCCS(=O)(CCCC(F)(F)C(F)(F)F)=NC(=O)CCN4CCCCC4)C3C1CCC2O (stereo not shown) [7g] | 7.3 | –
8 | 155.5 nm | 0.041 | 147.8 nm | 0.075 | 161.0 nm | 0.039 | 91.3% | 54.3% | 4.8% | 94.8% | 54.2% | 4.9% | 92.4% | 54.3% | 4.8% | −5.09 mV | −10.01 mV | −3.97 mV | CN(C)CC(=O)N=S(=O)(CCCCCCCCCC1Cc2cc(O)ccc2C2CCC3(C)C(O)CCC3C12)CCCC(F)(F)C(F)(F)F (stereo not shown) [7f] | 7.0 | nanoparticle formation with RNA cargos of varying molecular weight ([1]; siRNA, T.U. RNA, rRNA, mRNA): form nanoparticles encapsulating a range of RNA cargos
9 | – | – | 539.2 nm | Multimodal | – | – | – | – | – | 87.6% | 54.9% | 4.5% | – | – | – | – | −2.05 mV | – | CC12CCC3c4ccc(O)cc4CC(CCCCCCCCCS(=O)(CCCC(F)(F)C(F)(F)F)=NC(=O)C[N+](C)(C)C)C3C1CCC2O (stereo not shown) [7l] | – | –
10 | 289.8 nm | 0.003 | 141.0 nm | 0.019 | 296.2 nm | 0.012 | 81.7% | 55.4% | 4.2% | 85.5% | 55.2% | 4.4% | 84.9% | 55.3% | 4.4% | −7.61 mV | −12.50 mV | −11.53 mV | CC12CCC3c4ccc(O)cc4CC(CCCCCCCCCS(=O)(CCCC(F)(F)C(F)(F)F)=NC(=O)Cn4ccnc4)C3C1CCC2O (stereo not shown) [7b] | 5.4 | –
11 | – | – | 338.6 nm | 0.218 | – | – | – | – | – | 52.8% | 57.2% | 2.7% | – | – | – | – | −3.98 mV | – | CN1CCN(CC(=O)N=S(=O)(CCCCCCCCCC2Cc3cc(O)ccc3C3CCC4(C)C(O)CCC4C23)CCCC(F)(F)C(F)(F)F)CC1 (stereo not shown) [7i] | 7.4 | –
12 | – | – | 447.8 nm | Multimodal | – | – | – | – | – | 88.1% | 53.4% | 4.7% | – | – | – | – | −6.62 mV | – | CC12CCC3c4ccc(O)cc4CC(CCCCCCCCCS(=O)(CCCC(F)(F)C(F)(F)F)=NC(=O)CN)C3C1CCC2O (stereo not shown) [7m] | 8.1 | –
13 | – | – | – | – | – | – | – | – | – | – | – | – | – | – | – | – | – | – | CC[C@H]1CN2CCc3cc(OC)c(OC)cc3[C@@H]2C[C@@H]1C[C@H]1NCCc2cc(OC)c(OC)cc21 [emetine, reference compound] | – | siRNA encapsulation (in words) [1]: did not encapsulate siRNA in nanoparticles or encapsulated siRNA at low efficiency
14 | 159.4 nm | 0.043 | 136.0 nm | 0.017 | 180.1 nm | 0.072 | 87.5% | 55.7% | 4.4% | 89.3% | 55.6% | 4.5% | 73.7% | 56.1% | 3.8% | −8.02 mV | −10.15 mV | −10.97 mV | CC12CCC3c4ccc(O)cc4CC(CCCCCCCCCS(=O)(CCCC(F)(F)C(F)(F)F)=NC(=O)CCn4ccnc4)C3C1CCC2O (stereo not shown) [7c] | 5.5 | –
15 | 214.2 nm | 0.068 | 132.6 nm | 0.041 | 215.1 nm | 0.066 | 90.8% | 55.7% | 4.6% | 90.8% | 55.7% | 4.6% | 89.7% | 55.7% | 4.5% | −2.88 mV | −11.13 mV | −7.23 mV | CC12CCC3c4ccc(O)cc4CC(CCCCCCCCCS(=O)(CCCC(F)(F)C(F)(F)F)=NC(=O)CN4CCCCC4)C3C1CCC2O (stereo not shown) [7e] | 6.4 | –
16 | – | – | – | – | – | – | – | – | – | – | – | – | – | – | – | – | – | – | CNCCC=C1c2ccccc2CCc2ccccc21 [nortriptyline, reference compound] | – | siRNA encapsulation (in words) [1]: did not encapsulate siRNA in nanoparticles or encapsulated siRNA at low efficiency
